How the values were obtained:
[1] = tested on: CD34+ cells isolated from donor peripheral blood; experiment: Enhancement of HSCs derived from non-mobilized peripheral blood with compounds of Formula I (Example 33); format: cell-based; details: normalized fold change days 2 to 7
Protocol: CD34+ cells were isolated from donor peripheral blood. Standard buffy coat separation using ficoll paque was performed. Cells were pelleted and incubated with unlabeled CD64 antibody. Cells then underwent negative depletion using biotinylated CD2, CD3, CD4, CD5, CD8, CD11b, CD14, CD16, CD19, CD20, CD45RA, CD56, CD235 (in some examples CD15, CD25 and other lineage specific antibodies may also be used). Cells which bind these antibodies are depleted using streptavidin beads. The enriched progenitor pool then undergoes cell sorting for CD34+.
Isolated CD34+ cells were incubated in an in vitro culture media of Alpha MEM without phenol red with 10% (v/v) heat inactivated fetal bovine serum (FBS). When testing compounds of Formula I, two internal controls were used: a positive control (+SF conditions) and a baseline control (i.e. basic conditions (“cytokines only”)). The media components and concentrations used for the compounds tested are described in [0563] Table 2. The culture also included an antibiotic solution that includes penicillin, streptomycin, and amphotericin B to avoid contamination. Controls were included because the amount of expansion in samples obtained varies from individual to individual.
(§1) Cultures were incubated at […] (controlled by nitrogen) and 5% CO2.
(§2) Small molecule components were added separately and fresh each time the media needs to be refreshed. Cytokines can be stored together. Media renewal should occur at least every few days.
(§3) On the days indicated one-half of the volume of the cell culture was removed for data analysis (flow cytometry using a BD FACS ARIA II). The culture volume was replenished with fresh media according to the conditions tested. The data reported accounts for the dilution factor introduced in this procedure.
Separate experiments were performed for each compound tested (Compound 1.001-1.023).
(§4) Table 3, below, summarizes the relative expansive effect of Compound 1.001 to 1.023 (sample compounds) at the indicated concentration. The data in Table 3 is reported as the relative expansive effect. The relative expansive effect is a normalized value of the fold changes shown in each of FIG. 1-FIG. 23. It is calculated as shown below: […]

[2] = tested on: hematopoietic stem cells derived from cord blood; experiment: Enhancement of HSCs derived from cord blood with Compound 1.008 (Example 34); format: cell-based
Protocol: A frozen cord blood sample was thawed and gradually brought to room temperature. Thawed cord blood was incubated in an in vitro culture media of Alpha MEM without phenol red, 10% (v/v) heat inactivated fetal bovine serum (FBS). Four samples were tested: Base conditions, +SF Conditions, +1.008 Conditions, and +1.008/+ER conditions. The components included in each condition is described in [0574] Table 4. Each condition tested also included an antibiotic solution that includes penicillin, streptomycin, and amphotericin B to avoid contamination.
as §1, §2
as §3, with “varying amounts” for “one-half of the volume”, “II) and to avoid overcrowding of cells.” for “II).”

[3] = tested on: CD34+ cells from cord blood; experiment: Expansion of cord blood CD34+ cells, seven-day culture (Example 35); format: cell-based, human; details: normalized fold change days 1 to 7
Protocol: CD34+ cells from cord blood were purchased from STEMCELL Technologies. Primary human CD34+ cells were isolated from cord blood samples using positive immunomagnetic separation techniques. Cells were thawed and gradually brought to room temperature. Samples were washed, then placed in overnight culture in StemSpan with 100 ng/ml each of FLT3L, TPO, SCF, and TL-6. Eighteen to twenty-four hours later (day 1), cells were counted and immunophenotyped (flow cytometry on an Invitrogen Attune N×T cytometer).
Approximately 1000 live cells were plated into each well of 96-well plates; exact cell numbers dispensed per well were quantified with flow cytometry for later calculations.
Media for testing compounds of Formula I was prepared using Alpha MEM without phenol red, 10% (v/v) heat inactivated fetal bovine serum. Culture conditions also included an antibiotic solution that includes penicillin, streptomycin, and amphotericin B to avoid contamination. Additional media components and concentrations used for the compounds tested are described in Table 5.
All incubations for this experiment took place at 3% oxygen (controlled by nitrogen) and 5% CO2. Following seven days of culture, cells from wells were collected and phenotypes were analyzed (flow cytometry on an Invitrogen Attune N×T cytometer).
as §4, with “6” for “3,”, “the screened compounds” for “Compound 1.001 to 1.023 (sample compounds)”, “6” for “3”, “the figures.” for “FIG. 1-FIG. 23.”

[4] = +1.008 conditions (Compound 1.008 250 nM), 19 days in culture

Compound: CC(C)(C)C(=O)Nc1ccc2c(c1)C(=O)c1cc(N)ccc1-2 [Compound 1.008, N-(7-amino-9-oxo-9H-fluoren-2-yl)pivalamide]
- CD90 effect (relative expansive effect on CD34+/CD133+/CD90+ cells) ([1]; sample compound 4 μM): +++++ (1.25 ≤ x)
- CD133 effect (relative expansive effect on CD34+/CD133+ cells) ([1]; sample compound 4 μM): +++ (0.55 ≤ x < 0.9)
- fold increase in CD34+/CD133+ cells from day 2 [2, 4]: greater than 50 fold
- fold increase in CD34+/CD133+/CD90+ cells from day 2 [2, 4]: ~20 fold
- fold increase in CD34+/CD133+/CD90+/CD38low/− cells from day 2 [2, 4]: > 12 fold
- fold increase in CD34+ cells from day 2 ([2]; +1.008 conditions (Compound 1.008 250 nM, TPO, SCF, FLT3L), 19 days in culture): greater than 50 fold
- CD90 effect (relative expansive effect on CD34+/CD133+/CD90+ cells) ([3]; sample compound 8 μM): ++++ (2.16 ≤ x < 2.52)
- CD133 effect (relative expansive effect on CD34+/CD133+ cells) ([3]; sample compound 8 μM): ++++ (2.16 ≤ x < 2.52)

Compound: CC(=O)Nc1ccc2c(c1)C(=O)c1ccccc1-2 [Compound 1.009, N-(9-oxo-9H-fluoren-2-yl)acetamide]
- CD90 effect (relative expansive effect on CD34+/CD133+/CD90+ cells) ([1]; sample compound 2 μM): +++++ (1.25 ≤ x)
- CD133 effect (relative expansive effect on CD34+/CD133+ cells) ([1]; sample compound 2 μM): +++++ (1.25 ≤ x)
- CD90 effect (relative expansive effect on CD34+/CD133+/CD90+ cells) ([3]; sample compound 0.5 μM): +++ (1.8 ≤ x < 2.16)
- CD133 effect (relative expansive effect on CD34+/CD133+ cells) ([3]; sample compound 0.5 μM): +++ (1.8 ≤ x < 2.16)

Compound: CC(C)(C)C(=O)Nc1ccc2c(c1)/C(=N/O)c1ccccc1-2 [Compound 1.013, N-(9-(hydroxyimino)-9H-fluoren-2-yl)pivalamide]
- CD90 effect (relative expansive effect on CD34+/CD133+/CD90+ cells) ([1]; sample compound 4 μM): +++ (0.55 ≤ x < 0.9)
- CD133 effect (relative expansive effect on CD34+/CD133+ cells) ([1]; sample compound 4 μM): +++ (0.55 ≤ x < 0.9)
- CD90 effect (relative expansive effect on CD34+/CD133+/CD90+ cells) ([3]; sample compound 2 μM): +++++ (2.52 ≤ x)
- CD133 effect (relative expansive effect on CD34+/CD133+ cells) ([3]; sample compound 2 μM): ++++ (2.16 ≤ x < 2.52)

Compound: CC(C)(C)C(=O)Nc1cc2c(cc1O)-c1ccccc1C2=O [Compound 1.014, N-(3-hydroxy-9-oxo-9H-fluoren-2-yl)pivalamide]
- CD90 effect (relative expansive effect on CD34+/CD133+/CD90+ cells) ([1]; sample compound 8 μM): +++ (0.55 ≤ x < 0.9)
- CD133 effect (relative expansive effect on CD34+/CD133+ cells) ([1]; sample compound 8 μM): ++ (0.2 ≤ x < 0.55)
- CD90 effect (relative expansive effect on CD34+/CD133+/CD90+ cells) ([3]; sample compound 8 μM): ++ (1.44 ≤ x < 1.8)
- CD133 effect (relative expansive effect on CD34+/CD133+ cells) ([3]; sample compound 8 μM): ++ (1.44 ≤ x < 1.8)

Compound: CC(C)(C)C(=O)Nc1ccc2c(c1)C(N)c1ccccc1-2 (stereo not shown) [Compound 1.015, N-(9-amino-9H-fluoren-2-yl)pivalamide]
- CD90 effect (relative expansive effect on CD34+/CD133+/CD90+ cells) ([1]; sample compound 2 μM): ++++ (0.9 ≤ x < 1.25)
- CD133 effect (relative expansive effect on CD34+/CD133+ cells) ([1]; sample compound 2 μM): +++ (0.55 ≤ x < 0.9)
- CD90 effect (relative expansive effect on CD34+/CD133+/CD90+ cells) ([3]; sample compound 0.5 μM): ++ (1.44 ≤ x < 1.8)
- CD133 effect (relative expansive effect on CD34+/CD133+ cells) ([3]; sample compound 0.5 μM): ++ (1.44 ≤ x < 1.8)

Compound: CCOC1c2ccccc2-c2ccc(NC(C)=O)cc21 (stereo not shown) [Compound 1.021, N-(9-ethoxy-9H-fluoren-2-yl)acetamide]
- CD90 effect (relative expansive effect on CD34+/CD133+/CD90+ cells) ([1]; sample compound 8 μM): ++ (0.2 ≤ x < 0.55)
- CD133 effect (relative expansive effect on CD34+/CD133+ cells) ([1]; sample compound 8 μM): ++ (0.2 ≤ x < 0.55)
- CD90 effect (relative expansive effect on CD34+/CD133+/CD90+ cells) ([3]; sample compound 8 μM): + (x < 1.44)
- CD133 effect (relative expansive effect on CD34+/CD133+ cells) ([3]; sample compound 8 μM): + (x < 1.44)

Compound: CC(=O)Nc1ccc2c(c1)C(OC(C)=O)c1ccccc1-2 (stereo not shown) [Compound 1.022, 2-acetamido-9H-fluoren-9-yl acetate]
- CD90 effect (relative expansive effect on CD34+/CD133+/CD90+ cells) ([1]; sample compound 32 μM): +++++ (1.25 ≤ x)
- CD133 effect (relative expansive effect on CD34+/CD133+ cells) ([1]; sample compound 32 μM): +++ (0.55 ≤ x < 0.9)
- CD90 effect (relative expansive effect on CD34+/CD133+/CD90+ cells) ([3]; sample compound 8 μM): ++ (1.44 ≤ x < 1.8)
- CD133 effect (relative expansive effect on CD34+/CD133+ cells) ([3]; sample compound 8 μM): +++ (1.8 ≤ x < 2.16)

Compound: CCOC1c2ccccc2-c2ccc(NC(=O)C(C)(C)C)cc21 (stereo not shown) [Compound 1.023, N-(9-ethoxy-9H-fluoren-2-yl)pivalamide]
- CD90 effect (relative expansive effect on CD34+/CD133+/CD90+ cells) ([1]; sample compound 32 μM): ++ (0.2 ≤ x < 0.55)
- CD133 effect (relative expansive effect on CD34+/CD133+ cells) ([1]; sample compound 32 μM): + (x < 0.2)
- CD90 effect (relative expansive effect on CD34+/CD133+/CD90+ cells) ([3]; sample compound 8 μM): ++ (1.44 ≤ x < 1.8)
- CD133 effect (relative expansive effect on CD34+/CD133+ cells) ([3]; sample compound 8 μM): ++ (1.44 ≤ x < 1.8)

Compound: ER50891 [reference compound]
- fold increase levels of HSC populations on addition of ER50891 ([2]; ER50891 100 nM added to Compound 1.008 250 nM (+1.008/+ER conditions), compared with +1.008 alone): even further improved

Reference: patent US20220315895A1, “METHODS OF MAKING OLIGOPOTENT AND UNIPOTENT PRECURSORS” (Transfusion Health, LLC, priority 2019, published 2022)
